Test results reported in ChEMBL document CHEMBL4261619, “Sentulic acid isolated from Sandoricum koetjape Merr attenuates lipopolysaccharide and interferon gamma co-stimulated nitric oxide production in murine macrophage RAW264 cells” (Bioorg Med Chem Lett, 2018).
Active and inactive are the calls of the source. The calls are words filed in the database; no cut-off is given here.

What was measured:
Type in all cases: cell-based
[1] = molecular target: T1, Toll-like receptor 4 (Mus musculus) (UniProt Q9QUK6); assay: Inhibition of LPS binding to TLR4 in IFNgamma-stimulated mouse RAW264.7 cells assessed as reduction in nitric oxide production pretreated for 2 hrs followed by LPS/IFNgamma stimulation and measured after 24 hrs
T1 sequence (whole entry): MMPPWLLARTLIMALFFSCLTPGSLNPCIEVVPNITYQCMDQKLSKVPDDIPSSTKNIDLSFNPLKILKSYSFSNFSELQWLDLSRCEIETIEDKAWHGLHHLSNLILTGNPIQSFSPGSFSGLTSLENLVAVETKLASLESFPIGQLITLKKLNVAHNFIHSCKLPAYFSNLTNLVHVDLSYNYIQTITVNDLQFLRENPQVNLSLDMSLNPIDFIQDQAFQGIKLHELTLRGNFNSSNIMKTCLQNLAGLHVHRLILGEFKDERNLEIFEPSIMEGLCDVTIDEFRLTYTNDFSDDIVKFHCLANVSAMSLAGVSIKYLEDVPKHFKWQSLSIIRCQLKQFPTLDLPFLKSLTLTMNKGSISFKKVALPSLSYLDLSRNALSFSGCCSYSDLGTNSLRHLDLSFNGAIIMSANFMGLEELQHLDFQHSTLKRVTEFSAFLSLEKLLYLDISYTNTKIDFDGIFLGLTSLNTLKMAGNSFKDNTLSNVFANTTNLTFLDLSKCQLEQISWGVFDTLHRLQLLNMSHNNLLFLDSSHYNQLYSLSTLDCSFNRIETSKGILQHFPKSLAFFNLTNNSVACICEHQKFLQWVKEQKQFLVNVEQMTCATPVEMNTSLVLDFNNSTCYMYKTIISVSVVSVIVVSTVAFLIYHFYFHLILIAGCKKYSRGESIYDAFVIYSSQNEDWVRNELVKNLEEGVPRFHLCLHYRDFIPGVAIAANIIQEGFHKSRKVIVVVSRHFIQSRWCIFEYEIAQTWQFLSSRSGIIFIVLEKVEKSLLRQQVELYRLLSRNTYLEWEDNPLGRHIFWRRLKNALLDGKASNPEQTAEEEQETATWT

[2] = molecular target: T1, Toll-like receptor 4 (Mus musculus); assay: Inhibition of LPS binding to TLR4 in IFNgamma-stimulated mouse RAW264.7 cells assessed as suppression of iNOS mRNA expression at 100 uM by qRT-PCR analysis
[3] = molecular target: T1, Toll-like receptor 4 (Mus musculus); assay: Inhibition of LPS binding to TLR4 in IFNgamma-stimulated mouse RAW264.7 cells assessed as effect on ratio of phosphorylated JNK to total JNK at 100 uM measured after 30 mins by Western blot analysis relative to beta-actin (reference value: 2.3)
[4] = molecular target: T1, Toll-like receptor 4 (Mus musculus); assay: Inhibition of LPS binding to TLR4 in IFNgamma-stimulated mouse RAW264.7 cells assessed as effect on ratio of phosphorylated NFkappaB to total NFkappaB at 100 uM measured after 60 mins by Western blot analysis relative to beta-actin (reference value: 1)
RAW264.7 = assay: Inhibition of IFNgamma binding to IFNGR in LPS-stimulated mouse RAW264.7 cells assessed as effect on ratio of phosphorylated Stat1 to total Stat1 at 100 uM measured after 120 mins by Western blot analysis relative to beta-actin (reference value: 4.1)
[5] = molecular target: T2, Nuclear factor erythroid 2-related factor 2 (Mus musculus) (UniProt Q60795); assay: Induction of NRF2-ARE mediated HO-1 expression in mouse RAW264.7 cells at 100 uM after 2 hrs by Western blot analysis
T2 sequence (whole entry): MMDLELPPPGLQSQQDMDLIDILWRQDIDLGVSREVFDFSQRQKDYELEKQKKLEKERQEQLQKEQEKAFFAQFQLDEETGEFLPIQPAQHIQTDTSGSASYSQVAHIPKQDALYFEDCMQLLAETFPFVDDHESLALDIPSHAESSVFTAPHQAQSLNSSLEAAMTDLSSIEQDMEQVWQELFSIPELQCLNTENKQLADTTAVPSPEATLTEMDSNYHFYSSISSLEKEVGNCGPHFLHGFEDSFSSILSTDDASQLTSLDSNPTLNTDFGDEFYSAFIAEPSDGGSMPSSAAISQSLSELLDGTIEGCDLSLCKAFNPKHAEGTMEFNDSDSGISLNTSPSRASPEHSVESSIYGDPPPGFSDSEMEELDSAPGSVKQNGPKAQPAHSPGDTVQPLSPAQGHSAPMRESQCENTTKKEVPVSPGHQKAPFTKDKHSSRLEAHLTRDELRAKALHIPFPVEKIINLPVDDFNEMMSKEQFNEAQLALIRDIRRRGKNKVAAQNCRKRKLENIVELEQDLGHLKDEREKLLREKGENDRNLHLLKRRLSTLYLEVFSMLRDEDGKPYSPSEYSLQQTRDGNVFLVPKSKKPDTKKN

C=C(C)[C@@H]1CC[C@]2(C)[C@H](CC=C3[C@@H]4CC(C)(C)CC[C@]4(C)CC[C@]32C(=O)O)[C@@]1(C)CCC(=O)O
inhibition [1]: Dose-dependent effect | inhibition [2]: Active | fold change (FC) [3]: 1.5 | fold change (FC) [4]: 1 | fold change (FC) (RAW264.7): 1.6 | Activity [5]: inactive
